# Laboratory results from patent EP0506011A1, “Tetrazoleacetic acid derivatives having aldose reductase inhibitory activity” (Wakamoto Pharmaceutical Co., Ltd., priority 1991, dated 1992).
# Biological target: T1, aldose reductase (Rattus norvegicus, UniProt P07943)
# T1 construct: The lenses were homogenized in 3 volumes of 135 mM sodium potassium phosphate buffer (pH 7.0) and centrifuged; from tissue; host or cells: crystalline lenses of six-week-old male SD rats
# Test: Test for Examining Aldose Reductase Inhibitory Effect (rat lens enzyme, DL-glyceraldehyde substrate, absorbance at 340 nm)
# Format: biochemical
# Conditions: aldose reductase solution from crystalline lenses of SD rats; DL-glyceraldehyde 10 mM; 30°C for 5 minutes; pH 5.2; compound at 10 ⁻⁶ M, 10⁻⁷ M or 10 ⁻⁸ M; read-out: IC₅₀
# Protocol: Six-week-old male SD rats were anesthetized with ether and killed. Then their crystalline lenses were immediately removed and stored at -80 °C . […] The resulting supernatant was dialyzed overnight against 0.05 M sodium chloride solution to obtain an aldose reductase solution. All operations were conducted at 4 °C and the enzyme solution was stored at -80°C .
# More specifically, 0.1 ml of DL-glyceraldehyde (final concentration: 10 mM) was added to 0.9 ml of 100 mM sodium potassium phosphate buffer (pH 5.2) which contained lithium sulfate (final concentration: 400 mM), reduced nicotinamide adenine dinucleotide phosphate (final concentration: 0.15 mM), the enzyme solution, and the compound to be evaluated (final concentration: 10 ⁻⁶ M, 10⁻⁷ M or 10 ⁻⁸ M), and then the reaction was conducted at 30°C for 5 minutes. During the reaction, the change in the absorbance at 340 nm with time was monitored.
# The maximum reducing rate of the absorbance (U) during the reaction was determined. By subtracting, from this value, the maximum reducing rate (U₀) at 340 nm of the reaction solution before the addition of the substrate (DL-glyceraldehyde), the reaction rate (V = U - U₀) was calculated as a true reaction rate in the presence of the compound to be tested. The same procedure was repeated except for the absence of the compound to be tested. A true reaction rate (V₀) in case the enzyme was not inhibited was calculated (V₀ = U¹ - U₀¹). The aldose reductase inhibitory activity of the test compounds was determined according to the following formula: Rate of Inhibition (%) = (V₀ - V)/V₀ x 100 [formula]
row,SMILES,IC50 [µM]
1,"O=C(O)Cn1nnnc1-c1csc2ccccc12 [Example 2-2, [5-(3-Benzothienyl)tetrazol-1-yl]acetic acid]",0.019
2,"O=C(O)Cn1nnnc1-c1ccc2ccsc2c1 [Example 2-4, [5-(6-Benzothienyl)tetrazol-1-yl]acetic acid]",0.034
3,"O=C(O)Cn1nnnc1-c1sc2ccccc2c1Cl [Example 2-6, [5-(3-Chloro-2-benzothienyl)tetrazol-1-yl]acetic acid]",0.035
4,"COc1ccc2sc(-c3nnnn3CC(=O)O)cc2c1 [Example 2-10, [5-(5-Methoxy-2-benzothienyl)tetrazol-1-yl]acetic acid]",0.028
5,"COc1ccc2cc(-c3nnnn3CC(=O)O)sc2c1 [Example 2-11, [5-(6-Methoxy-2-benzothienyl)tetrazol-1-yl]acetic acid]",0.021
6,"CCCCOc1ccc2cc(-c3nnnn3CC(=O)O)sc2c1 [Example 2-12, [5-(6-Butoxy-2-benzothienyl)tetrazol-1-yl]acetic acid]",0.024
7,"CC(C)c1ccc2cc(-c3nnnn3CC(=O)O)sc2c1 [Example 2-13, [5-(6-Isopropyl-2-benzothienyl)tetrazol-1-yl]acetic acid]",0.018
8,"COc1cc2cc(-c3nnnn3CC(=O)O)sc2c(OC)c1OC [Example 2-14, [5-(5,6,7-Trimethoxy-2-benzothienyl)tetrazol-1-yl]acetic acid]",0.069
9,"COc1ccc2c(C)c(-c3nnnn3CC(=O)O)oc2c1 [Example 2-17, [5-(6-Methoxy-3-methyl-2-benzofuryl)tetrazol-1-yl]acetic acid]",0.16

# Results, then the molecule that gave them:
row,IC50 [µM],SMILES
1,0.024,"O=C(O)Cn1nnnc1-c1cc2ccccc2s1 [Example 2-1, [5-(2-Benzothienyl)tetrazol-1-yl]acetic acid]"
2,0.026,"O=C(O)Cn1nnnc1-c1cccc2sccc12 [Example 2-3, [5-(4-Benzothienyl)tetrazol-1-yl]acetic acid]"
3,0.032,"Cc1c(-c2nnnn2CC(=O)O)sc2ccccc12 [Example 2-5, [5-(3-Methyl-2-benzothienyl)tetrazol-1-yl]acetic acid]"
4,0.022,"Cc1cccc2sc(-c3nnnn3CC(=O)O)cc12 [Example 2-7, [5-(4-Methyl-2-benzothienyl)tetrazol-1-yl]acetic acid]"
5,0.018,"Cc1ccc2cc(-c3nnnn3CC(=O)O)sc2c1 [Example 2-8, [5-(6-Methyl-2-benzothienyl)tetrazol-1-yl]acetic acid]"
6,0.02,"COc1cccc2sc(-c3nnnn3CC(=O)O)cc12 [Example 2-9, [5-(4-Methoxy-2-benzothienyl)tetrazol-1-yl]acetic acid]"
7,0.046,"O=C(O)Cn1nnnc1-c1cc2ccccc2o1 [Example 2-15, [5-(2-Benzofuryl)tetrazol-1-yl]acetic acid]"
8,0.068,"Cc1c(-c2nnnn2CC(=O)O)oc2ccccc12 [Example 2-16, [5-(3-Methyl-2-Benzofuryl)tetrazol-1-yl]acetic acid]"
